From patent US12564581B2, “Pyrazole pharmaceutical composition” (Intervet Inc., priority 2019, dated 2026)

Columns and labels:
cIL-31 induced pruritus = conditions: with respect to placebo; similar magnitude to oclacitinib (Apoquel); from WO 2018/108969; cited from earlier work
[1] = Solubility of the compound in surfactant solutions; assay type: physicochemical
Description: To increase solubility of the compound and promote increase bioavailability, a number of surfactants were screened. The table below lists the solubilities of 1-[(3R,4S)-4-cyanotetrahydropyran-3-yl]-3-[(2-fluoro-6-methoxy-4-pyridyl)amino]pyrazole-4-carboxamide in the tested surfactant solutions.

COc1cc(Nc2nn([C@H]3COCC[C@@H]3C#N)cc2C(N)=O)cc(F)n1 [compound of Formula (I), 1-[(3R,4S)-4-cyanotetrahydropyran-3-yl]-3-[(2-fluoro-6-methoxy-4-pyridyl)amino]pyrazole-4-carboxamide]
Suppression of pruritus (cIL-31 induced pruritus): significantly suppressed pruritus
solubility ([1]; 1% polysorbate (Tween 80) solution, aqueous with cosolvent or surfactant or cyclodextrin, 1% polysorbate (Tween 80)): 50.3 µg/mL
solubility ([1]; 1% sodium lauryl sulfate (SLS) solution, aqueous with cosolvent or surfactant or cyclodextrin, 1% sodium lauryl sulfate (SLS)): 195 µg/mL
solubility ([1]; 10% ELP solution, aqueous with cosolvent or surfactant or cyclodextrin, 10% ELP): 541 µg/mL
solubility ([1]; 10% P407 solution, aqueous with cosolvent or surfactant or cyclodextrin, 10% P407): 217 µg/mL
solubility ([1]; 10% Poloxamer 124 solution, aqueous with cosolvent or surfactant or cyclodextrin, 10% Poloxamer 124): 108 µg/mL
solubility ([1]; 10% Poloxamer 188 solution, aqueous with cosolvent or surfactant or cyclodextrin, 10% Poloxamer 188): 109 µg/mL
solubility ([1]; 10% hydrogenated castor oil (RH40) solution, aqueous with cosolvent or surfactant or cyclodextrin, 10% hydrogenated castor oil (RH40)): 489 µg/mL
solubility ([1]; 10% polyvinylpyrrolidone (PVP) solution, aqueous with cosolvent or surfactant or cyclodextrin, 10% polyvinylpyrrolidone (PVP)): 133 µg/mL
solubility ([1]; 30% HS15 solution, aqueous with cosolvent or surfactant or cyclodextrin, 30% HS15): 1420 µg/mL
solubility ([1]; Oleoyl macrogol-6 / polyoxyl-6 glycerides (Labrafil M1944CS), oil or lipid): 807 µg/mL
solubility ([1]; aqueous with cosolvent or surfactant or cyclodextrin, 1% D-a-Tocopheryl polyethylene glycol 1000 succinate (TPGS)): 99 µg/mL
solubility ([1]; aqueous with cosolvent or surfactant or cyclodextrin, 10% polyoxyethylated 12-hydroxystearic acid (Solutol HS 15)): 460 µg/mL
Water solubility (in words) ([1]; water): poorly water soluble
solubility ([1]; water): 8 µg/mL
